In ChEMBL document CHEMBL1201862, “PubChem BioAssay data set” (2004):
One block for each compound: values may come before it. The source made the active and inactive calls.

What was measured:
[1] = biological target: T1, Mannose-6-phosphate isomerase (Homo sapiens, UniProt P34949); assay: human PMI inhibitors, high substrate, primary screen, biochemical, fluorescence intensity, high mannose 6-phosphate (AID 1220)
T1 sequence (P34949 whole entry): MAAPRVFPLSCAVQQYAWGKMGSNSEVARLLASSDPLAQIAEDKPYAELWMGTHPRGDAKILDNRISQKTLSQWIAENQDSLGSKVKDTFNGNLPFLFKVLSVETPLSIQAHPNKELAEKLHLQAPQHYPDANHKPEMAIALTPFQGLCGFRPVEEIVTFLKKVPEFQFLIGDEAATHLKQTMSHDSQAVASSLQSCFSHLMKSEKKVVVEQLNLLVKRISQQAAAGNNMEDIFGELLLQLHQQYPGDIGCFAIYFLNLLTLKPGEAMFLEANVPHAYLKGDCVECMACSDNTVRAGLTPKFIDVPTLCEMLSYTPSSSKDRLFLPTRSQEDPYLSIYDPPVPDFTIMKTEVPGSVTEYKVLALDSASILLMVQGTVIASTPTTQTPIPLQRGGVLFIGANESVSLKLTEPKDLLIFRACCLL

Protein Tat = biological target: T2, Protein Tat (Human immunodeficiency virus type 1 group M subtype B (isolate HXB2)(HIV-1), UniProt P04608); assay type: functional;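 note: tat binding to TAR RNA read out by fluorescence polarization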
T2 sequence (P04608 whole entry): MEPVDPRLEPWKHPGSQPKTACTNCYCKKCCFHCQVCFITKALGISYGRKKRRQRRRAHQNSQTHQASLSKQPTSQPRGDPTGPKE

Prothrombin = Prothrombin (Homo sapiens, UniProt P00734); assay: Thrombin 1536 HTS Dose Response Confirmation. [Related pubchem assays: 1046 (Thrombin 1536 HTS; hits were confirmed in this assay)]; assay type: functional
Cytochrome P450 2C19 = Cytochrome P450 2C19 (Homo sapiens, UniProt P33261); assay: qHTS Assay for Inhibitors and Substrates of Cytochrome P450 2C19. [Related pubchem assays: 410 ]; assay type: ADME; details: read-out: Potency
Chain of Cytochrome P450 2C19 (P33261 whole entry): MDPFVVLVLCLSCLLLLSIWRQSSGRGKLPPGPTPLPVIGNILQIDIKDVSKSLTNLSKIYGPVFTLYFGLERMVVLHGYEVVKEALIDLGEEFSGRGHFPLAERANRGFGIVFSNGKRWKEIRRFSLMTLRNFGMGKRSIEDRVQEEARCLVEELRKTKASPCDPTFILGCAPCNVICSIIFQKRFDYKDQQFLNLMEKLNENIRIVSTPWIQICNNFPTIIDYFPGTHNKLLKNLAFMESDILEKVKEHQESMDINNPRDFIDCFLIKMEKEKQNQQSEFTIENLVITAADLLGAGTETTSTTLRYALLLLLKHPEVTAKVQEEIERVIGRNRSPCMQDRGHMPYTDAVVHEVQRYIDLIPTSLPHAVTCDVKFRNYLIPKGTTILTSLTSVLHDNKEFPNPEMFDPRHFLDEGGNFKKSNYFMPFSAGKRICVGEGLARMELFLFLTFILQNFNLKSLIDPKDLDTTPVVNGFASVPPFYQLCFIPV

[2] = cytotoxicity toward NIH3T3 fibroblasts, dose response, counter-screen, cell-based, ATP luminescence, mouse fibroblasts (AID 2010); assay type: functional;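 note: cells exposed to compound for about 90 hours before reading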
[3] = biological target: E3 ubiquitin-protein ligase Mdm2 (Homo sapiens, UniProt Q00987); assay: enhancers of MDM2-luciferase reporter signal, concentration-effect titration, project on inhibitors of MDM2 ubiquitin ligase, cellular assay, luminescent readout, 384-well plate format (AID 1394); assay type: functional;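 note: MDM2 E3 inhibitors raise luminescence so EC50 is for signal enhancement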
Chain of E3 ubiquitin-protein ligase Mdm2 (Q00987 whole entry): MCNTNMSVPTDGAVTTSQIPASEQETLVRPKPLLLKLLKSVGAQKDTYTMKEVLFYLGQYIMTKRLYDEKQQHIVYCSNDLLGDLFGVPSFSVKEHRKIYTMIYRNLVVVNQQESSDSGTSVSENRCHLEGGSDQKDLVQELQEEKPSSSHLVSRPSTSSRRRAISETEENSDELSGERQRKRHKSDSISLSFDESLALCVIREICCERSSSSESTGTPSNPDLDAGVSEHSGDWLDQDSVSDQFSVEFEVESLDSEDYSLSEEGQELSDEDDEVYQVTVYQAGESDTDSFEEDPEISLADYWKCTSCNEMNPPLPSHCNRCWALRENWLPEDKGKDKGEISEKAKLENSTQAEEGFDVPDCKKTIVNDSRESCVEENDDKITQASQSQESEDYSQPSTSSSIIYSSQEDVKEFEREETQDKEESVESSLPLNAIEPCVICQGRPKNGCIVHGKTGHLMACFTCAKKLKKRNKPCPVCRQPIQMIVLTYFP

Streptococcus = assay: Group A Streptococcus viability loss, dose response, counter-screen for streptokinase expression inhibitor project, luminescence, BacTiterGlo (AID 1915); assay type: functional, organism-based;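 note: potency for reduction of bacterial viability or growth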
[4] = inhibitors of intracellular T. cruzi replication, confirmation, NIH3T3 host cells, beta-gal luminescence (AID 2044); assay type: functional, cell-based;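 note: intracellular parasites grown in NIH/3T3 mouse fibroblasts as host cells; luminescent beta-galactosidase reporter signal from transgenic T. cruzi replicating inside host cells; inhibitors lower the luminescence signal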
[5] = biological target: T3, High affinity choline transporter 1 (Homo sapiens, UniProt Q9GZV3); assay: CHT inhibitors, dose response, cell-based, 5-point CRC, membrane potential dye (AID 504840); assay type: functional
T3 sequence (Q9GZV3 whole entry): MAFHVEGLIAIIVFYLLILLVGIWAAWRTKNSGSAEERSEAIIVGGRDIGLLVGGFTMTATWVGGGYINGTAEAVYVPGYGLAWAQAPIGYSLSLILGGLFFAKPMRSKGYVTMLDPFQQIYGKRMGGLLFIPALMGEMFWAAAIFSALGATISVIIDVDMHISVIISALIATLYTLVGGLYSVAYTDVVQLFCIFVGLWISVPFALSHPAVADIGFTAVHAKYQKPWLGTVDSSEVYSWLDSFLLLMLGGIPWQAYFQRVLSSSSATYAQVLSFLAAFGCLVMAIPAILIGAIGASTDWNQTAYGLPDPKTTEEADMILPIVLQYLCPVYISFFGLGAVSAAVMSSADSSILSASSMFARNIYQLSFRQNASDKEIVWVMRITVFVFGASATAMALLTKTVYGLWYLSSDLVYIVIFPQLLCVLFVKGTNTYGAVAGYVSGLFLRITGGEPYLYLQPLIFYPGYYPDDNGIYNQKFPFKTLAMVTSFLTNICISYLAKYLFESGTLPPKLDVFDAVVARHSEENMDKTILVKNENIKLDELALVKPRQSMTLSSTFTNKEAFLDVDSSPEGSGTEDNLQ

X-box-binding protein 1 = X-box-binding protein 1 (Homo sapiens, UniProt P17861); assay type: functional, Cricetulus griseus;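 note: confirmatory dose-response counter-screen serving a CHOP assay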
Chain of X-box-binding protein 1 (P17861 whole entry): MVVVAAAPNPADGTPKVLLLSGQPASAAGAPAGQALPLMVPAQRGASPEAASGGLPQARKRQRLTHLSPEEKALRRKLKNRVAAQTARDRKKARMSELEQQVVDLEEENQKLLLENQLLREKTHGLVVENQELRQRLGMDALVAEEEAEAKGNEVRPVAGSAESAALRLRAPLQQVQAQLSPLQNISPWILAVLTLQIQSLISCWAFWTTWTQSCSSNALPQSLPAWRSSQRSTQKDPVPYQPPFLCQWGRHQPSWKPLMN

[6] = tested on: Streptococcus sp. 'group A'; assay: growth inhibition of control SK(-) GAS strain, dose response, counter-screen for streptokinase expression inhibitor project, luminescence, kanamycin, BacTiterGlo, confirmation (AID 1900); assay type: functional, organism-based
[7] = biological target: Sphingosine 1-phosphate receptor 2 (Homo sapiens, UniProt O95136); assay: Dose Response Cell Based Assay for Agonists of the S1P2 Receptor. [Related pubchem assays: 729, 736, 843 ]; assay type: functional
Chain of Sphingosine 1-phosphate receptor 2 (O95136 whole entry): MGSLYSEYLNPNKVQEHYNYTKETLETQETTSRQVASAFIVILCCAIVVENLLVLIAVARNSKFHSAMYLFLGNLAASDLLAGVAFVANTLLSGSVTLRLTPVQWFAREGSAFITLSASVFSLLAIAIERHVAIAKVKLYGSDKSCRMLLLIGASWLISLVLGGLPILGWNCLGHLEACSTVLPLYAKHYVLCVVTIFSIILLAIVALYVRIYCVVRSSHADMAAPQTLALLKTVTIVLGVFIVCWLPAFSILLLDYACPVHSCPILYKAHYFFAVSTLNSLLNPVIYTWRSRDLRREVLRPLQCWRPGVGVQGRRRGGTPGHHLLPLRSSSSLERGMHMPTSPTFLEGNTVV

[8] = biological target: Aryl hydrocarbon receptor (Homo sapiens, UniProt P35869); assay: Luminescence-based cell-based high throughput dose response assay for activators of the Aryl Hydrocarbon Receptor (AHR). [Related pubchem assays: 2796 (Primary screen (AHR activators in singlicate)), 2845 (Confirmation screen (AHR activators in triplicate)), 434939 (Counterscreen (PXR activators in triplicate)), 2804 (Summary (AHR activators))]; assay type: ADME
Chain of Aryl hydrocarbon receptor (P35869 whole entry): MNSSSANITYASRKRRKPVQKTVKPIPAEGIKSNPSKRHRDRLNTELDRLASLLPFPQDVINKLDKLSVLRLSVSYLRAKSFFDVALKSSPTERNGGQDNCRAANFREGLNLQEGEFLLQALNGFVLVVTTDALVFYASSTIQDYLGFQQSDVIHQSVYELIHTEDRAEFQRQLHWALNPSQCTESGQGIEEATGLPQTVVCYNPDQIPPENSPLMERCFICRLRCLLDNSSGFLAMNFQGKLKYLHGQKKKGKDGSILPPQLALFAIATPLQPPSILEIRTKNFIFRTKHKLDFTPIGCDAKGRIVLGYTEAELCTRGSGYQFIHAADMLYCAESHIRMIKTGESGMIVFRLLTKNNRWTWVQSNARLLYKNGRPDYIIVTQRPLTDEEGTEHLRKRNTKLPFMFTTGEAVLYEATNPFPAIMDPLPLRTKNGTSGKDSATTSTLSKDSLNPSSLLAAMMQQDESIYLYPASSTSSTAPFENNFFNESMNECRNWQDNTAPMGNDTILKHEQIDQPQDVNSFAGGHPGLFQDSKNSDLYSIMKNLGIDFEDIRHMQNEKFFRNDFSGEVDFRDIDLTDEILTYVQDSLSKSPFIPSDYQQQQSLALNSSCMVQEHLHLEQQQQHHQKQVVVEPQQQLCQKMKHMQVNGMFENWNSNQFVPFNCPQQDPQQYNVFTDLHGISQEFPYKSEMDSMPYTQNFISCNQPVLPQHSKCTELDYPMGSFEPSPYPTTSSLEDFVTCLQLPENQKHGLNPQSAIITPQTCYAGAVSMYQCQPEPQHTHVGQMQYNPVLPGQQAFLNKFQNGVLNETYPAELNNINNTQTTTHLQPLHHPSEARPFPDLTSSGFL

[9] = biological target: T4, Tyrosine-protein phosphatase non-receptor type 7 (Homo sapiens, UniProt P35236); assay: inhibitors of human HePTP phosphatase, […], biochemical, absorbance, leukemia target (AID 521); assay type: functional
T4 sequence (P35236 whole entry): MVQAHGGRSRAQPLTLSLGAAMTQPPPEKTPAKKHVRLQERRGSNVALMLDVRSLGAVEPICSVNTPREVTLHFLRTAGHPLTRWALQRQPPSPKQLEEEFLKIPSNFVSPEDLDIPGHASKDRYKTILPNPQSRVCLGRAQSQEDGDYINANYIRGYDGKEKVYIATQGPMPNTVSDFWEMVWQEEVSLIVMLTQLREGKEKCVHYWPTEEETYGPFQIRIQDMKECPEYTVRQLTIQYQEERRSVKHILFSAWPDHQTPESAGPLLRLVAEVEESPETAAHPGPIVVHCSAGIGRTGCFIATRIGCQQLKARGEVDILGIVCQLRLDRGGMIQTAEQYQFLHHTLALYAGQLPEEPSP

Ephrin type-A receptor 4 = Ephrin type-A receptor 4 (Mus musculus, UniProt Q03137); assay: inhibitors of EphA4 binding to KYL peptide, primary screen, biochemical, colorimetric, mouse EphA4 (AID 689); assay type: functional
Chain of Ephrin type-A receptor 4 (Q03137 whole entry): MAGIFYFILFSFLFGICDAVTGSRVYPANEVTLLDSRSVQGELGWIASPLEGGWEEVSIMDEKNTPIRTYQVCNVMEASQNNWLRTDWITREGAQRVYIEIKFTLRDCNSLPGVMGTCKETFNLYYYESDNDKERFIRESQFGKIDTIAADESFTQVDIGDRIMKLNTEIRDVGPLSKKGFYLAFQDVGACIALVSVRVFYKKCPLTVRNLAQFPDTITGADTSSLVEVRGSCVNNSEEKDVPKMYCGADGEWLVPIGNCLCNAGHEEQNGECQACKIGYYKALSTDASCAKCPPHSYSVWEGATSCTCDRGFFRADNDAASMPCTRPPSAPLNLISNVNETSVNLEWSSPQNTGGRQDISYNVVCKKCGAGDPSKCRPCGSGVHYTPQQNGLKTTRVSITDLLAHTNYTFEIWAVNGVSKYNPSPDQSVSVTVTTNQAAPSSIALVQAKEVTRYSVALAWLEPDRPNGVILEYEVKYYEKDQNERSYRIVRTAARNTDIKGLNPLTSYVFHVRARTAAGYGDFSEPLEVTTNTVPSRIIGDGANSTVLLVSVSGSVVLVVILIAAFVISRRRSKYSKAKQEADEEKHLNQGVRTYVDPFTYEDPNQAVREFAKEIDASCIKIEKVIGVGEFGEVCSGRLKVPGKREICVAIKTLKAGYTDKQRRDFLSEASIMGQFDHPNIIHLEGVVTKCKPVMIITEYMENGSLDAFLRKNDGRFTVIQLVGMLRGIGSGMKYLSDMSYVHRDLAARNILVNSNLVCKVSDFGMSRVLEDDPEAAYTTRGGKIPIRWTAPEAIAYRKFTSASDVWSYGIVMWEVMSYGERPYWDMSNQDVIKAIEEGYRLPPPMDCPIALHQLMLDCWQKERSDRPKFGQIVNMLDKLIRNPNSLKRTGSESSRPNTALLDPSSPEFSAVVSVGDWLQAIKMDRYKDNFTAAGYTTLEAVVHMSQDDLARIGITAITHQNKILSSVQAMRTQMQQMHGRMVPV

[10] = biological target: Heat shock protein HSP 90-alpha (Homo sapiens, UniProt P07900); assay: Luminescence-based dose response biochemical high throughput screening assay for inhibitors of the Heat Shock Protein 90 (HSP90). [Related pubchem assays: 1831 (Summary AID.), 1846 (Confirmation screen.), 1789 (Primary screen.)]

SMILES: COC(=O)NC(c1cccc(F)c1)[C@]1(C(C)=O)CCCC1=O (stereo partly drawn)
AC50 (Cytochrome P450 2C19): 2.51 µM (inconclusive)

SMILES: CC(C)c1ccc2c(c1)C1(NN=C(c3ccccc3)S1)C(=O)N2 (stereo not drawn)
EC50 [2]: 6.8 µM (active)
EC50 [3]: 1.42 µM (active)
EC50 (Streptococcus): 2.81 µM (active)
EC50 [4]: 0.333 µM (active)
IC50 [5]: 12.6 µM (active)
Absolute IC50 (XBP1) (X-box-binding protein 1): 10 µM
EC50 [6]: < 0.06 µM (active)

SMILES: O=C(NCC1(c2ccccc2)CCCC1)C(=O)N1CCOCC1
EC50 [7]: > 50 µM (not active)

SMILES: O=C(CCN1C(=O)/C(=C/C=C/c2ccccc2)SC1=S)Nc1nccs1
IC50 (Ephrin type-A receptor 4): > 100 µM (not active)

SMILES: CCc1ccc(Nc2n[n+](-c3ccccc3)c(-c3ccc(N(CC)CC)cc3)s2)cc1
IC50 [10]: 5.48 µM (active)
EC50 [2]: > 60 µM (not active)
EC50 [4]: 0.408 µM (active)

Continued, values first:

IC50 [1]: > 50 µM (not active)
IC50 (Protein Tat): > 100 µM (inconclusive)
IC50 (Prothrombin): > 50 µM (not active)
SMILES: Nc1cccc2c1=NC1(CCCCC1)[N+]=2[O-]

EC50 [8]: 6.13 µM (active)
SMILES: CCOCCc1nnc(NC(=O)c2ccc(OC)c(OC)c2)s1

IC50 [9]: > 100 µM (not active)
SMILES: O=C(Nc1ccccc1)c1ccc(NCC2CCCO2)c(S(=O)(=O)N2CCOCC2)c1 (stereo not drawn)
